Reference: patent US7262269B2, “Method for screening combinational bead library; ligands for cancer cells” (The Regents of University of California, priority 2001, dated 2007)

Each substance was assayed on epithelial ovarian cancer cell line SKOV-3 (assay: cell-growth-on-bead assay, SKOV-3). Settings: Example 3, cX2GX4GX6X7c library, 24 to 72 hours.
Type: cell-based, human
Procedure: (§1) The ratio of cells to beads is preferably about 10:1, but can range from about 1:1 to 100:1. The suspension of cells 10 and beads 12 is mixed gently for sufficient time to assure contact of beads 12 with suspended cells 10. The culture plates are incubated in a tissue culture incubator at about 4° C. to about 37° C., preferably 37° C., for a period of about 24 to about 72 hours. The suspension of cells 10 and beads 12 may be kept still or mixed, either continuously or intermittently, during the incubation period.
(§2) After the incubation period, beads 12 are observed under a dissecting microscope. […] These beads 14 (referred to as “positive” beads) are removed from the culture plates. A tetrazolium dye that stains live, but not dead, cells can be used to facilitate the identification and removal of the positive beads. If a dye is used, all of the beads are removed after the incubation period and resuspended in fresh medium in new culture plates. The dye is added. The plates are then incubated in a tissue culture incubator at 25° C. to 37° C. for about one to four hours. Live cells 10 convert the dye to a colored metabolite, which results in beads 14 with attached cells appearing colored, allowing them to be easily distinguished from beads 16 without attached cells, which appear colorless, as shown in FIG. 1E. Other dyes that stain live cells can also be used. After positive beads 14 are removed from the plates, attached cells 10 are separated from the beads. This can be done with the addition of a chaotrophic agent, such as 8 M guanidine hydrochloride, or a protease, such as trypsin.
(§3) About 150,000 peptide beads were mixed with approximately one million suspended cells in 15 ml of culture medium and distributed into six 3-cm culture plates. The culture plates were agitated gently at about 100 rpm for about 10 minutes. The culture plates were then incubated in a tissue culture incubator at 37° C. for about 24 hours to about 72 hours.
(§4) A dissecting microscope was used to examine the beads at about 24, 48, and 72 hours. After about 24 to 72 hours, beads with a monolayer of cells were observed.
(§5) At the end of the incubation period, all of the beads were removed and resuspended in fresh medium in a new culture plate. An MTT ([3-(4,5-dimethylthiazol-2-yl)-2,5-diphenyl] tetrazolium bromide) (Sigma, St. Louis, Mo.) dye solution was added to each culture plate to a final concentration of 0.5 mg/ml. The plates were incubated in a tissue culture incubator at 37° C. for about two hours to allow the purple color to develop. Each purple-colored peptide bead was isolated and removed. The attached cells were separated from the beads with 8 M guanidine hydrochloride.
(§6) The amino acid sequence of each isolated peptide bead was determined using an automated Procise 494 protein sequencer (Applied Biosystems, Foster City, Calif.). Several consensus peptide sequences were determined, one of which was cNGRGEQc. This peptide was resynthesized on beads, which were then rescreened with the A549 cells using the assay of the invention.
(§7) The method as described in Example 1 was performed, except that a different combinatorial library was used and different types of epithelial cancer cells were used. A one-bead-one-compound combinatorial peptide library was prepared according to the method described in Example 1, with the following formula: cX2GX4GX6X7c, where “c” is D-cysteine; “G” is glycine; X2 is D,d,N, n, S,Q,q,T, HoSer, Cit, E, e, HoCit, Hyp, Aad, Lys(Ac), A, 4-Pal, D-3-Pal, Pra, D-Pra, Y, Aib, M, Phe(4-CN), Tyr(3-NO2), Tyr(Me), Phe(4-NO2), Bug, Ach, Tyr(3,5-I), Aic, Phe(3-Cl), Chg, Bta, Bpa, Phe(3,4-Cl), Hyp(Bzl), or Cha; and X4, X6 and X7 are N, S, Q, T, HoSer, Cit, HoCit, Hyp, H, A, Pal, D-3-Pal, Pra, R, Y, Aib, Abu, P, M, V, Nva, Tyr(3-NO2), W, Phg, Phe(4-NO2), Bug, I, Ach, L, Nle, Phe(4-Me), Aic, Phe(3-Cl), HoPhe, Chg, Bta, Bpa, 2-Nal, 1-Nal, Phe(3,4-Cl), Hyp(Bzl), or Cha. […]

Substance	identified as ligand (positive bead with monolayer of cells)
c-d-G-Phg-G-P-F-c	identified
c-d-G-Cha-G-1-T-c	identified
c-d-G-Nva-G-Phe (4-CN)-F-c	identified
cdGLGFTc	identified
c-d-G-Tyr(3NO2)-G-Pra-G-c	identified
c-d-G-(4-Pal)-G-Tyr(3-NO2)-Cha-c	identified
cdGIGPQc	identified
c-d-G-Cit-G-Hyp(Bzl)-M-c	identified
c-d-G-Phe(4-Me)-G-T-Pra-c	identified

Same assay, conditions: Example 4, cX2GX4GX6X7c library, peptide concentration on bead surface 20% of Example 3

Substance	identified as ligand (positive bead with monolayer of cells)
c-d-G-Tyr(3-NO2)-G-Nle-H-c	identified
c-d-G-Tyr(3-NO2)-G-Phg-M-c	identified
c-d-G-L-G-S-Bpa-c	identified
c-d-G-A-G-Bta-L-c	identified
c-d-G-Nle-G-Phe(3-Cl)-S-c	identified

The substances below were run on epithelial ovarian cancer cell line ES-2 (assay: cell-growth-on-bead assay, ES-2). Settings: Example 3, cX2GX4GX6X7c library, 24 to 72 hours.
Type: cell-based, human
Procedure: as §1, §2, §3, §4, §5, §6, §7

Substance	identified as ligand (positive bead with monolayer of cells)
c-d-G-Tyr(Me)-G-T-M-c	identified
c-d-G-Cha-G-HoCit-S-c	identified
c-d-G-L-G-HoSer-T-c	identified
c-d-G-Phe(4Me)-G-P-Cha-c	identified
cdGLGYYc	identified
c-d-G-V-G-Hyp-HoSer-c	identified
c-d-G-Phe(3-Cl)-G-Q-F-c	identified

Same assay, conditions: Example 4, cX2GX4GX6X7c library, peptide concentration on bead surface 20% of Example 3

Substance	identified as ligand (positive bead with monolayer of cells)
cdGLGWGc	identified
c-d-G-Bta-G-Hyp-Y-c	identified
c-d-G-Aib-G-Aib-N-c	identified
c-d-G-Cha-G-Bta-Q-c	identified
c-d-G-Cha-G-HoCit-Q-c	identified
c-d-G-HoCit-G-P-Q-c	identified
c-d-G-Phe(4-Me)-G-Aib-S-c	identified
c-d-G-Aib-G-P-S-c	identified

The substances below were run on epithelial ovarian cancer cell line OVCAR-3 (assay: cell-growth-on-bead assay, OVCAR-3). Settings: Example 4, cX2GX4GX6X7c library, peptide concentration on bead surface 20% of Example 3.
Type: cell-based, human
Procedure: as §1, §2, §3, §4, §5, §6
(§8) The method as described in Example 1 was performed, except that a different combinatorial library was used and different types of epithelial cancer cells were used. The peptide library of Example 3 was used, except that the concentration of peptides on the surface of each bead was 20% of that used in Example 3, resulting in an increase in screening stringency.
The peptide library was screened with one of the following epithelial ovarian cancer cell lines: CaOV3, SKOV-3, ES-2 and OVCAR-3 (American Type Culture Collection).
(§9) As described in Example 1, after culturing for about 24 to 72 hours, beads with a monolayer of cells were observed. These positive beads were isolated and the amino acid sequence of each positive bead was determined, as described in Example 1.

Substance	identified as ligand (positive bead with monolayer of cells)
c-Nle-G-Nle-G-Tyr(3-NO2)-L-c	identified
c-d-G-Tyr(3-NO2)-G-Aic-Q-c	identified
c-d-G-HoCit-G-T-Nva-c	identified
c-d-G-Phe(3-C l)-G-T-Y-c	identified
c-Tyr(3-NO2)-G-F-G-(Pal-3D)-HoSer-c	identified
c-d-G-Nle-G-1-G-c	identified

These substances were tested on ovarian cancer cell line CaOV3 (assay: cell-growth-on-bead assay, CaOV3). Settings: Example 2, cXXXXXXc library, 24 to 72 hours.
Type: cell-based, human
Procedure: as §1, §2, §3, §4, §5, §6
The method as described in Example 1 was performed, except that the combinatorial peptide library was screened with a different type of epithelial cancer cells, the ovarian cancer cell line CaOV3 (American Type Culture Collection).
as §9
as §8, with “stringency. […]” for “stringency.”

Substance	identified as ligand (positive bead with monolayer of cells)
cDGLGDDc	identified
cDGWGPNc	identified

Same assay, conditions: Example 4, cX2GX4GX6X7c library, peptide concentration on bead surface 20% of Example 3

Substance	identified as ligand (positive bead with monolayer of cells)
c-d-G-M-G-HoSer-Nle-c	identified
c-d-G-Tyr(3-NO2)-G-F-L-c	identified
c-d-G-Chg-G-Hyp-N-c	identified
c-d-G-M-G-S-Cha-c	identified
c-d-G-Tyr(3-NO2)-G-i-Pra-c	identified
c-D-G-Cha-G-Hyp-N-c	identified
cdGMGSAc	identified

These substances were tested on epithelial cells (assay: secondary library screening and structure/activity relationship studies). Settings: not given.
Type: cell-based
Excerpt: Through additional secondary library screening and structure/activity relationship studies, other ligands for epithelial cells have been identified, including the following: • c-D-G-Chg-G-A-N-c; c-N-G-Bpa-G-Q-M-c; c-N-G-Acdt-G-D-Bpa-c; cNGTGDGc; • cNGQGAGc; cNGYGSFc; c-N-G-Nle-G-Y-G-c; cNGMGAYc; cNGQGEQc; • cRGNGTDc; cNGQGPLc; cNGLGRSc; cDGMGSNc; cNGLGQYc; and • cNGYGTTc.

Substance	identified as ligand for epithelial cells
cNGYGSFc	identified
cRGNGTDc	identified
c-D-G-Chg-G-A-N-c	identified
cNGQGAGc	identified
cDGMGSNc	identified
cNGLGQYc	identified
cNGLGRSc	identified
cNGMGAYc	identified
cNGTGDGc	identified
c-N-G-Nle-G-Y-G-c	identified
cNGQGEQc	identified
cNGYGTTc	identified
cNGQGPLc	identified
c-N-G-Bpa-G-Q-M-c	identified
c-N-G-Acdt-G-D-Bpa-c	identified

These substances were tested on non-epithelial glioblastoma brain cancer cell line A-172 (assay: cell-growth-on-bead assay, A-172). Settings: Example 5, library of Example 3, 24 to 72 hours.
Type: cell-based, human
Procedure: as §1, §2, §3, §4, §5, §6
The method as described in Example 1 was performed, except that a different combinatorial library was used and non-epithelial cancer cells were used. A one-bead-one-compound combinatorial peptide library was prepared as described in Example 3.
The peptide library was screened with the non-epithelial glioblastoma brain cancer cell line A-172 (American Type Culture Collection).
as §9

Substance	identified as ligand (positive bead with monolayer of cells)
c-e-G-y-G-Hyp-W-c	identified
c-e-G-N-G-S-(1-Nal)-c	identified
c-N-G-Nle-G-(4-Pal)-M-c	identified
cDGLGDDc	identified
c-e-G-L-G-Nle-M-c	identified
cDGWGPNc	identified
c-d-G-(4-Pal)-G-Phe (4-Me)-T-c	identified
c-D-G-L-G-P-HoPhe-c	identified
